We go through one molecule from ChEMBL document CHEMBL1201862, “PubChem BioAssay data set” (2004).

Calls of active or inactive are those of the source. Some results are limits rather than exact numbers.

Test [1] is described as follows: Luminescence Cell-Based Dose Response HTS to Identify Activators of Luciferase Translation or Activity in H4 […] Cells. [Related pubchem assays: 1829 (Project Summary), 1814 (Primary HTS)]. The class given is functional.
The test system of test [2] is H4. Nature of the test: Luminescence Cell-Based Dose Response HTS to Identify Activators of 5'UTR Stem-Loop Driven Prion Protein mRNA Translation in H4 Neuroglioblastoma Cells. [Related pubchem assays: 1829 (Project Summary), 1814 (Primary HTS)]. The class given is functional. To be noted: Homo sapiens.
The target of test [3] is T1, Heat shock factor protein 1 (Mus musculus, UniProt P38532).
T1 sequence (P38532 whole entry): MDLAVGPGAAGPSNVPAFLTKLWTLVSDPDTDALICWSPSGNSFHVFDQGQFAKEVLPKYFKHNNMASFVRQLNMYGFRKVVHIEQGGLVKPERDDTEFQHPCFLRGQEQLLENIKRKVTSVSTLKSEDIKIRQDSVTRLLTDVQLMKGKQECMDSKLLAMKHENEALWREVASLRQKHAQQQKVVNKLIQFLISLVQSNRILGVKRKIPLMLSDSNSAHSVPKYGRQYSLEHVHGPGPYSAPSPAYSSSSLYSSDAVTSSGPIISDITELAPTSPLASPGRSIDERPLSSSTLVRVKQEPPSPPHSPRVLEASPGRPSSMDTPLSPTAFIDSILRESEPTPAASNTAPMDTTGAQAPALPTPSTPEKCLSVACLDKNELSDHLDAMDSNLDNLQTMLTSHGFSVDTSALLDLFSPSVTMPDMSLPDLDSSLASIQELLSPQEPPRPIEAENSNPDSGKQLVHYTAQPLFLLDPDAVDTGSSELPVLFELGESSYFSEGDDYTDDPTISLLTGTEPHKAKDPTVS
Kind of test: inhibition of MG132-induced HSE-luciferase signal, confirmation, cell-based, NIH3T3, luminescence, dose retest (AID 2382).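 Also: NIH3T3 fibroblasts with HSF1-driven luciferase reporter stressed by proteasome inhibitor MG132; luminescence from HSF1-driven luciferase expression after 8 hours of MG132 stress.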 Format: functional.

Test [4] in a line: THP-1 cell cytotoxicity, dose response, cytotoxicity control for non-replicating M. tuberculosis project (AID 489025). Format: functional.
Test [5] in a line: HepG2 cell cytotoxicity, dose response, cytotoxicity control for non-replicating M. tuberculosis project (AID 489018). Format: functional. To be noted: Mycobacterium tuberculosis.
A short description of test [6]: Vero E6 cell cytotoxicity, dose response, cytotoxicity control for non-replicating M. tuberculosis project, secondary assay (AID 492998). Format: functional, VeroE6. To be noted: Vero C1008.
In test [7] the test system is HEK293. Nature of the test: cells. To be noted: Homo sapiens. Format: functional, cell-based.
In test [8] the target is T2, Nuclear receptor subfamily 0 group B member 1 (Homo sapiens, UniProt P51843).
T2 sequence (P51843 whole entry): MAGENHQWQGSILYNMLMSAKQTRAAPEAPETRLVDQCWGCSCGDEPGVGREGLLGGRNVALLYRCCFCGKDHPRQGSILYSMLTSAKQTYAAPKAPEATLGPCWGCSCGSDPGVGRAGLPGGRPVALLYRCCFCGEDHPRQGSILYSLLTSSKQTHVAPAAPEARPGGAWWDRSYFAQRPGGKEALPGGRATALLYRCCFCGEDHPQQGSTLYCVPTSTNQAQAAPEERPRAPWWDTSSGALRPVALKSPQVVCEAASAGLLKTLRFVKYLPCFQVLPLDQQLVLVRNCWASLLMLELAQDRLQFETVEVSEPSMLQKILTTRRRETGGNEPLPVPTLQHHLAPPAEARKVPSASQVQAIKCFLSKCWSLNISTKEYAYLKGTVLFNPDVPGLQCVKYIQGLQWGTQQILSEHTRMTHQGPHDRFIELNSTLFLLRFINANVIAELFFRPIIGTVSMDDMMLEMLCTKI
Kind of test: Luminescence-based cell-based high throughput dose response assay for inhibitors of the orphan nuclear receptor subfamily 0, group B, member 1 (DAX1; NR0B1). [Related pubchem assays (depositor defined):AID504766, AID504790]. The class given is functional.

The nature of test [9]: HepG2 cell cytotoxicity, dose response, cytotoxicity control, ATP luminescence, cherry-pick, activator set 2 (AID 1053143). The class given is functional, cell-based.

As for `Nc1ccccc1C(=O)NNC1=C(C(=O)C(F)(F)F)CCC1`, the values for the EC50 in test [1], in [2] and in test [3] were 39.2 µM (active), 21.7 µM (active) and 36.6 µM (active), respectively. For the same molecule, the CC50 is 14.1 µM (active) in test [4], > 20 µM (active) in [5] and > 20 µM (active) in test [6]. The IC50 in test [7] was > 2.5 µM (active); in [8] it was > 67.5 µM (inactive). For the same molecule, the AC50 in test [9] is 26 µM (active).

In general, EC50 refers to the concentration that produces a half-maximal response. The term CC50 denotes the concentration giving 50% cytotoxicity. By IC50 is commonly meant the concentration needed to halve the response being measured. The term AC50 denotes the concentration at which the activity in the assay is half-maximal.
